{"source": "BindingDB's records for doi:10.1021/jm060595u", "about": "(University of Bristol, 2006)"}
{"experiment": "Displacement of [3H]Cl-DPDPE from delta receptor in guinea pig brain homogenate", "units": {"Ki": "nM"}}
{"molecule": "O=C1CC[C@@]2(NCCCc3ccc(Cl)cc3)[C@H]3Cc4ccc(O)c5c4[C@@]2(CCN3CC2CC2)[C@H]1O5", "note": "[N-cyclopropylmethyl-14beta-[3'-(4'-chlorophenyl)propylamino]-7,8-dihydronormorphinone]", "Ki": 1.1}
{"molecule": "COc1ccc2c3c1O[C@H]1C(=O)CC[C@@]4(NC(=O)CCc5ccc(Cl)cc5)[C@@H](C2)N(CC2CC2)CC[C@]314", "note": "[N-cyclopropylmethyl-14beta-[3'-(4'-chlorophenyl)propanamido]-7,8-dihydronorcodeinone]", "Ki": 5.1}
{"molecule": "O=C(CCc1ccc(Cl)cc1)N[C@@]12CCC(=O)[C@@H]3Oc4c(O)ccc5c4[C@@]31CCN(CC1CC1)[C@@H]2C5", "note": "[N-cyclopropylmethyl-14beta-[3'-(4'-chlorophenyl)propanamido]-7,8-dihydronormorphinone]", "Ki": 0.6}
{"molecule": "COc1ccc2c3c1O[C@H]1C(=O)CC[C@@]4(NCCCc5ccc(Cl)cc5)[C@@H](C2)N(CC2CC2)CC[C@]314", "note": "[N-cyclopropylmethyl-14beta-[3'-(4'-chlorophenyl)propylamino]-7,8-dihydronorcodeinone]", "Ki": 31}
